From patent publication US9464113B2, “Anti-heparan sulfate peptides that block herpes simplex virus infection in vivo” (The Board of Trustees of the University of Illinois, priority 2010, dated 2016)
No end group written: not given here.

Experiments:
[1] = test system: HSV-1 (KOS) gL86; experiment: HSV-1 entry assay in CHO-K1 cells expressing gD receptors (3-OST-3, nectin-1, HVEM); assay type: cell-based, herpes simplex virus type-1; settings: CHO-K1 cells expressing one of three gD receptors; dose-dependent
Procedure: (§1) HSV-1 entry was assayed as described in Shukla et al., Cell 99:13-22 (1999). CHO-K1 cells were grown in 6-well plates to subconfluence and then transfected with 2.5 μg of expression plasmids for gD receptors nectin-1 (pBG38), HVEM (pBec10), 3-OST-3 isoform (pDS43), or pCDNA3.1 (empty vector) using LipofectAMINE (Gibco/BRL). At 16 h post-transfection, the cells were replated into 96-well dishes for pre-incubation with peptides at different concentrations for 60 min at room temperature. In parallel, natural target cells (HeLa, CF, and RPE) were also pre-treated with the peptides for the same duration. In all cases, unbound peptides were removed after washing 3× with PBS. Thereafter, cells were infected for 6 h with a recombinant virus, HSV-1 (KOS) gL86, at multiple plaque forming units (PFUs) and β-galactosidase assays were performed using either a soluble substrate o-nitrophenyl-β-D-galactopyranoside (ONPG at 3.0 mg/ml; ImmunoPure, Pierce) or X-gal (Sigma). For the soluble substrate, the enzymatic activity was measured at 410 nm using a micro-plate reader (Spectra Max 190, Molecular Devices, Sunnyvale, Calif.). For the X-gal assay, cells were fixed (2% formaldehyde and 0.2% glutaraldehyde) and permeabilized (2 mM MgCl2, 0.01% deoxycholate, and 0.02% nonidet NP-40 (Sigma)). 1 ml of β-galactosidase reagent (1.0 mg/ml X-gal in ferricyanide buffer) was added to each well and incubated at 37° C. for 90 min before the cells were examined using bright field microscopy under the 20× objectives of the inverted microscope (Zeiss Axiovert 100 M).
Peptide sequences from individual plaques were deduced by determining the nucleotide sequences of the portion of the phage genome that encoded them. The predicted peptide sequences of about 200 plaques were determined and sorted into two groups on the basis of their targets. […] After 6 hr, the cells were washed, permeabilized, and incubated with ONPG substrate (3.0 mg/ml) for quantitation of β-galactosidase activity expressed from the input viral genome. The enzymatic activity was measured at an optical density of 410 nm (OD410). […]

[2] = test system: HSV-1 (KOS) gL86; experiment: HSV-1 entry into primary human corneal fibroblasts (CF); assay type: cell-based, herpes simplex virus type-1; settings: for blocking of HSV-1 entry/infection: human CF, 60 min pre-treatment, 25 pfu/cell, 6 hr
Procedure: as §1
The ability of the G1 and G2 peptides to block HSV-1 entry into natural target cells (HeLa and primary cultures of human CF) was compared. A similar dosage response curve was generated when HeLa (FIG. 2A) or CF (FIG. 2B) were pre-treated with G1 or G2 peptides during HSV-1 entry. […] HeLa cells (FIG. 2A) and primary cultures of human corneal fibroblasts (CF) (FIG. 2B) were tested. Cells in 96-well plates were pre-treated for 60 min with indicated mM concentrations of G1, G2, or Cp peptides. Mock-treated cells (abbreviated as C) served as a control. Pretreated cells were infected with a β galactosidase-expressing recombinant virus HSV-1 (KOS) HSV-1 gL86 (25 pfu/cell) for 6 hr. Viral entry was quantitated as described above in reference to FIG. 1. Confirmation of HSV-1 entry blocking activity of G1, G2, and control (Cp) peptides on a per cell basis was obtained after cells were infected as described above followed by X-gal (1.0 mg/ml) staining (Right panels), which yields an insoluble blue product upon hydrolysis by β-galactosidase expressed from the input viral genomes. […] Microscopy was performed using a 20× objective of Zeiss Axiovert 100.
To better understand the inhibitory potential of G1 and G2 peptides, synthetic short variants (10-mer) were synthesized that lacked the terminal non-positively charged amino acids. In case of G1, N-terminus L and C-terminus H residues were removed. For G2, the N-terminus flanking residues (M and P) were removed. Without being bound by theory, it is believed that 12-mer peptides are too short to adopt substantial secondary or tertiary structures and that the primary structure of those peptides, which includes a defined sequence or groupings of positively charged residues, plays a critical role in mediating inhibition of HSV-1 entry. Synthetic 10-mer versions of G1 and G2 (shown above) were tested for blocking HSV-1(KOS)gL86 entry into cultured CF. After 6 h, the viral entry was measured by ONPG assay as described in FIG. 1.
Alanine (A) scanning mutagenesis was performed to identify specific amino acid residues responsible for each peptide's function, stability, and conformation. O'Nuallain et al., Biochemistry 46:13049-13058 (2007). Twelve synthetic peptides were made whereby each residue of G2 was sequentially replaced with an alanine residue and corresponding changes in the G2 peptide were evaluated for their ability to affect viral entry (FIG. 4B). […]

[3] = test system: GFP-expressing HHV-8 (rHHV-8.152); experiment: HHV-8 infection assay in HCjE cells; assay type: cell-based, human herpesvirus-8; settings: for fluorescence from GFP virus replication (microscopy): fluorescent microscope (FIG. 5D); for GFP-expression of HHV-8 (RFU): 48 h, fluorescence reader (FIG. 5C)
Procedure: HCjE cells grown in chamber slides (Labteck) or in a 96 well plate were pre-treated with G1, G2, or control peptides for 60 min at room temperature followed by inoculation with recombinant rHHV-8.152, expressing the green fluorescent protein (GFP). Viera et al., J. Virol. 72:5182-5188 (2000). 48-hr post-infection, GFP-positive cells were visualized under microscope (Zeiss Axioverst 100M). HHV-8 infection was determined as relative fluorescence units (RFU) using GENios Pro plate reader (TECAN) at 480-nm excitation and 520-nm emission frequencies. Five measurements of negative control, positive control, and the test samples were performed. Data were expressed as mean±SD.
The ability to block HHV-8 infection was examined in human conjunctival epithelial (HCjE) cells, a natural target for HHV-8 infection. Human conjunctival (HCjE) cells were pre-incubated with G1, G2 or control peptide (Cp) were infected with HHV-8 virions for 48 h at 37° C. After incubation the cells were washed thoroughly to remove unbound viruses. GFP-expression of HHV-8 was quantitated by determining relative fluorescence units (RFU) using a 96-well fluorescence reader (TECAN). Emission of fluorescence indicates virus infection. […] This was confirmed by examination of individual cells by fluorescence microscopy.
Viral replication in HCjE cells was visualized under fluorescent microscope (Zeiss Axiovert 100) in cells that were pretreated with G1, G2 or Cp, as described above (FIG. 5D). Asterisks indicate significant difference from controls and/or treatments (P<0.05, t test) and error bars represent SD. […] G1 may have some activity but the virus can possibly overcome it easily.

Sequence	blocking of HSV-1 entry [1]	blocking of HSV-1 entry/infection [2]	fluorescence from GFP virus replication (microscopy) [3]	GFP-expression of HHV-8 (RFU) [3]	activity normalized against wild-type G2 (higher than 1 = loss of activity) ([2]; alanine scanning, FIG. 4B)
RVCGSIGKEVLG [Cp, reference compound]	did not inhibit HSV-1 entry	no effect on HSV-1 entry	fluorescence was more easily seen	–	–
LRSRTKIIRIRH [G1, LRSRTKIIRIRH]	able to block HSV-1 entry	effective in blocking infection of individual cells	fluorescence was more easily seen	not found to be statistically significant	–
MPRRRRIRRRQK [G2, MPRRRRIRRRQK]	able to block HSV-1 entry	effective in blocking infection of individual cells	did not show fluorescence	relatively low GFP-expression	1.00
